The term pIC50 denotes −log10 of the IC50, conventionally taken in molar units.

pIC50: −log10 of the molar value.

The nature of this assay: Inhibition Assay: To determine the thrombin inhibition of the substances listed above, a biochemical test system is constructed in which the conversion of a thrombin substrate is used for determining the enzymatic activity of human thrombin. Here, thrombin cleaves aminomethylcoumarin, which is measured fluorescently, from the peptic substrate. The determinations are carried out in microtitre plates.Substances to be tested are dissolved in various concentrations in dimethyl sulphoxide and incubated for 15 min with human thrombin (0.06 nmol/l dissolved in 50 mmol/l of Tris buffer [C,C,C-tris(hydroxymethyl)aminomethane], 100 mmol/l of sodium chloride, 0.1% BSA [bovine serum albumin], pH 7.4) at 22° C. The substrate (5 umol/l Boc-Asp(OBzl)-Pro-Arg-AMC from Bachem) is then added. After 30 min of incubation, the sample is excited at a wavelength of 360 nm and the emission is measured at 460 nm. The measured emissions of the test batches with test substance are compared to the control batches without test substance (only dimethyl sulphoxide instead of test substance in dimethyl sulphoxide) and the IC50 values are calculated from the concentration/activity relationships.

Consider `COc1cc(C(=O)N2CC(C)(CCO)OC[C@H]2C)cc2nc(N[C@H](CF)c3cccc(Cl)c3)oc12` (stereo partly specified), for which the negative-log IC50 (pIC50) was 6.89.

The values are drawn from ChEMBL document CHEMBL3887009, “Substituted benzoxazoles” (2016).
